{
  "source": "patent US8247211B2",
  "about": "“Glycopeptide antibiotics” (American Cyanamid Company, priority 2001, dated 2012)",
  "key": {"[1]": {"test_system": "Staphylococcus aureus-SMITH (GC 4543)", "assay": "Acute lethal infection in mice (ED50)", "format": "in vivo", "details": "female CD-1 mice, intraperitoneal challenge, intravenous dose 30 min. after infection, 7 day survival ratios", "in_short": "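Groups of five female CD-1 mice per dose got intravenous antibiotic in saline or 5% dextrose half an hour after intraperitoneal infection sufficient to kill controls within 24-48 hr. Seven-day survival data from three experiments were combined to derive ED50.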"}, "Enterococcus sp.": {"test_system": "Enterococcus sp.", "assay": "In vitro antibacterial evaluation: minimum inhibitory concentration (MIC), broth dilution method", "format": "cell-based", "in_short": "(§1)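 An MIC is reported for each organism as the least concentration giving inhibition, using broth dilution over 64-0.06 μg/mL with a 5×10^5 CFU/mL inoculum.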"}, "Staphylococcus sp.": {"test_system": "Staphylococcus sp.", "assay": "In vitro antibacterial evaluation: minimum inhibitory concentration (MIC), broth dilution method", "format": "cell-based", "details": "broth dilution, 18 hours at 35° C.", "in_short": "as §1"}, "Escherichia coli": {"test_system": "Escherichia coli", "assay": "In vitro antibacterial evaluation: minimum inhibitory concentration (MIC), broth dilution method", "format": "cell-based", "in_short": "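Using Muller-Hinton II […] and an inoculum of 5×10^5 CFU/mL, antibiotic dilutions from 64 down to 0.06 μg/mL were tested following NCCLS M7-A2. The MIC is the lowest concentration inhibiting growth, including in methicillin-, penicillin- or vancomycin-resistant clinical isolates.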"}, "Streptococcus sp.": {"test_system": "Streptococcus sp.", "assay": "In vitro antibacterial evaluation: minimum inhibitory concentration (MIC), broth dilution method", "format": "cell-based", "in_short": "as §1"}, "[2]": {"details": "broth dilution, inoculum 5×10^5 CFU/mL, 18 hours at 35° C."}},
  "data": [
    {"smiles": "Cc1ccc(Oc2ccc(C3OCC4OC(OC5C(CO)OC(Oc6ccc(CC7NC(=O)C(C(C)c8ccccc8)NC(=O)CNC(=O)C(CO)NC(=O)C(C(O)C8CNC(=N)N8C8OC(CO)C(O)C(O)C8O)NC(=O)C(C(O)C8CNC(=N)N8)NC7=O)cc6)C(O)C5O)C(O)C(O)C4O3)cc2)cc1", "note": "(stereo not drawn) [Example 174, Cyclo[glycyl-β-methylphenylalanyl-O-[4-O-[4,6-O-[4-(4-methylphenoxy)benzylidene]hexopyranosyl]hexopyranosyl]tyrosyl-3-(2-iminoimidazolidin-4-yl)seryl-3-(3-hexopyranosyl-2-iminoimidazolidin-4-yl)serylseryl]]", "values": [
      {"measurement": "median effective dose (ED50), Staphylococcus aureus-SMITH (GC 4543)", "setting": "[1]", "value": 0.08, "unit": "mg/kg"},
      {"measurement": "MIC Enterococcus avium (GC 4558)", "setting": "Enterococcus sp.; [2]", "value": 2, "unit": "µg/mL"},
      {"measurement": "MIC Enterococcus faecalis (ATCC 29212)", "setting": "Enterococcus sp.; [2]", "value": 2, "unit": "µg/mL"},
      {"measurement": "MIC Enterococcus faecalis (GC 2242)", "setting": "Enterococcus sp.; [2]", "value": 2, "unit": "µg/mL"},
      {"measurement": "MIC Enterococcus faecalis (GC 2691)", "setting": "Enterococcus sp.; [2]", "value": 2, "unit": "µg/mL"},
      {"measurement": "MIC Enterococcus faecalis (GC 3059)", "setting": "Enterococcus sp.; [2]", "value": 2, "unit": "µg/mL"},
      {"measurement": "MIC Enterococcus faecalis (GC 4552)", "setting": "Enterococcus sp.; [2]", "value": 1, "unit": "µg/mL"},
      {"measurement": "MIC Enterococcus faecalis (GC 4553)", "setting": "Enterococcus sp.; [2]", "value": 1, "unit": "µg/mL"},
      {"measurement": "MIC Enterococcus faecalis (GC 4554)", "setting": "Enterococcus sp.; [2]", "value": 1, "unit": "µg/mL"},
      {"measurement": "MIC Enterococcus faecalis (GC 6189)", "setting": "Enterococcus sp.; [2]", "value": 2, "unit": "µg/mL"},
      {"measurement": "MIC Enterococcus faecium (GC 2243)", "setting": "Enterococcus sp.; [2]", "value": 1, "unit": "µg/mL"},
      {"measurement": "MIC Enterococcus faecium (GC 4556)", "setting": "Enterococcus sp.; [2]", "value": 1, "unit": "µg/mL"},
      {"measurement": "MIC Enterococcus faecium (GC 4557)", "setting": "Enterococcus sp.; [2]", "value": 2, "unit": "µg/mL"},
      {"measurement": "MIC Enterococcus faecalis (ATCC 29212)", "setting": "Enterococcus sp.; strain ATCC 29212", "value": 2, "unit": "µg/mL"},
      {"measurement": "MIC Enterococcus faecalis (GC 2242)", "setting": "Enterococcus sp.; strain GC 2242", "value": 2, "unit": "µg/mL"},
      {"measurement": "MIC Enterococcus faecium (GC 2243)", "setting": "Enterococcus sp.; strain GC 2243", "value": 1, "unit": "µg/mL"},
      {"measurement": "MIC Enterococcus faecalis (GC 2691)", "setting": "Enterococcus sp.; strain GC 2691", "value": 2, "unit": "µg/mL"},
      {"measurement": "MIC Enterococcus faecalis (GC 3059)", "setting": "Enterococcus sp.; strain GC 3059", "value": 2, "unit": "µg/mL"},
      {"measurement": "MIC Enterococcus faecalis (GC 4552)", "setting": "Enterococcus sp.; strain GC 4552", "value": 1, "unit": "µg/mL"},
      {"measurement": "MIC Enterococcus faecalis (GC 4553)", "setting": "Enterococcus sp.; strain GC 4553", "value": 1, "unit": "µg/mL"},
      {"measurement": "MIC Enterococcus faecalis (GC 4554)", "setting": "Enterococcus sp.; strain GC 4554", "value": 1, "unit": "µg/mL"},
      {"measurement": "MIC Enterococcus faecium (GC 4556)", "setting": "Enterococcus sp.; strain GC 4556", "value": 1, "unit": "µg/mL"},
      {"measurement": "MIC Enterococcus faecium (GC 4557)", "setting": "Enterococcus sp.; strain GC 4557", "value": 2, "unit": "µg/mL"},
      {"measurement": "MIC Enterococcus avium (GC 4558)", "setting": "Enterococcus sp.; strain GC 4558", "value": 2, "unit": "µg/mL"},
      {"measurement": "MIC Enterococcus faecalis (GC 6189)", "setting": "Enterococcus sp.; strain GC 6189", "value": 2, "unit": "µg/mL"},
      {"measurement": "MIC Coagulase Negative Staphylococcus (GC 4547)", "setting": "Staphylococcus sp.; 5×10^5 CFU/mL", "value": 2, "unit": "µg/mL"},
      {"measurement": "MIC Coagulase Negative Staphylococcus (GC 4548)", "setting": "Staphylococcus sp.; 5×10^5 CFU/mL", "value": 0.5, "unit": "µg/mL"},
      {"measurement": "MIC Coagulase Negative Staphylococcus (GC 4549)", "setting": "Staphylococcus sp.; 5×10^5 CFU/mL", "value": 1, "unit": "µg/mL"},
      {"measurement": "MIC Coagulase Negative Staphylococcus (GC 4551)", "setting": "Staphylococcus sp.; 5×10^5 CFU/mL", "value": 1, "unit": "µg/mL"},
      {"measurement": "MIC Coagulase Negative Staphylococcus (GC 6257)", "setting": "Staphylococcus sp.; 5×10^5 CFU/mL", "value": 0.5, "unit": "µg/mL"},
      {"measurement": "MIC Staphylococcus aureus (ATCC 29213)", "setting": "Staphylococcus sp.; 5×10^5 CFU/mL", "value": 2, "unit": "µg/mL"},
      {"measurement": "MIC Staphylococcus aureus (GC 1131)", "setting": "Staphylococcus sp.; 5×10^5 CFU/mL", "value": 1, "unit": "µg/mL"},
      {"measurement": "MIC Staphylococcus aureus (GC 3051)", "setting": "Staphylococcus sp.; 5×10^5 CFU/mL", "value": 2, "unit": "µg/mL"},
      {"measurement": "MIC Staphylococcus aureus (GC 3053)", "setting": "Staphylococcus sp.; 5×10^5 CFU/mL", "value": 2, "unit": "µg/mL"},
      {"measurement": "MIC Staphylococcus aureus (GC 4541)", "setting": "Staphylococcus sp.; 5×10^5 CFU/mL", "value": 2, "unit": "µg/mL"},
      {"measurement": "MIC Staphylococcus aureus (GC 4542)", "setting": "Staphylococcus sp.; 5×10^5 CFU/mL", "value": 2, "unit": "µg/mL"},
      {"measurement": "MIC Staphylococcus aureus (GC 4544)", "setting": "Staphylococcus sp.; 5×10^5 CFU/mL", "value": 1, "unit": "µg/mL"},
      {"measurement": "MIC Staphylococcus aureus (GC 4545)", "setting": "Staphylococcus sp.; 5×10^5 CFU/mL", "value": 1, "unit": "µg/mL"},
      {"measurement": "MIC Staphylococcus aureus-SMITH (GC 4543)", "setting": "Staphylococcus sp.; 5×10^5 CFU/mL", "value": 1, "unit": "µg/mL"},
      {"measurement": "MIC Staphylococcus haemolyticus (GC 4546)", "setting": "Staphylococcus sp.; 5×10^5 CFU/mL", "value": 2, "unit": "µg/mL"},
      {"measurement": "MIC Staphylococcus aureus (ATCC 29213)", "setting": "Staphylococcus sp.; strain ATCC 29213", "value": 2, "unit": "µg/mL"},
      {"measurement": "MIC Staphylococcus aureus (GC 1131)", "setting": "Staphylococcus sp.; strain GC 1131", "value": 1, "unit": "µg/mL"},
      {"measurement": "MIC Staphylococcus aureus (GC 3051)", "setting": "Staphylococcus sp.; strain GC 3051", "value": 2, "unit": "µg/mL"},
      {"measurement": "MIC Staphylococcus aureus (GC 3053)", "setting": "Staphylococcus sp.; strain GC 3053", "value": 2, "unit": "µg/mL"},
      {"measurement": "MIC Staphylococcus aureus (GC 4541)", "setting": "Staphylococcus sp.; strain GC 4541", "value": 2, "unit": "µg/mL"},
      {"measurement": "MIC Staphylococcus aureus (GC 4542)", "setting": "Staphylococcus sp.; strain GC 4542", "value": 2, "unit": "µg/mL"},
      {"measurement": "MIC Staphylococcus aureus (GC 4544)", "setting": "Staphylococcus sp.; strain GC 4544", "value": 1, "unit": "µg/mL"},
      {"measurement": "MIC Staphylococcus aureus (GC 4545)", "setting": "Staphylococcus sp.; strain GC 4545", "value": 1, "unit": "µg/mL"},
      {"measurement": "MIC Escherichia coli (ATCC 25922)", "setting": "Escherichia coli; strain ATCC 25922", "value": ">64", "unit": "µg/mL"},
      {"measurement": "MIC Escherichia coli (GC 4559)", "setting": "Escherichia coli; strain GC 4559", "value": ">64", "unit": "µg/mL"},
      {"measurement": "MIC Escherichi coli (GC 4560)", "setting": "Escherichia coli; strain GC 4560", "value": 4, "unit": "µg/mL"},
      {"measurement": "MIC Streptococcus agalactiae (GC 4564)", "setting": "Streptococcus sp.; [2]", "value": "<0.06", "unit": "µg/mL"},
      {"measurement": "MIC Streptococcus pneumoniae (ATCC 6301)", "setting": "Streptococcus sp.; [2]", "value": "<0.06", "unit": "µg/mL"},
      {"measurement": "MIC Streptococcus pneumoniae (GC 1894)", "setting": "Streptococcus sp.; [2]", "value": "<0.06", "unit": "µg/mL"},
      {"measurement": "MIC Streptococcus pneumoniae (GC 4565)", "setting": "Streptococcus sp.; [2]", "value": "<0.06", "unit": "µg/mL"},
      {"measurement": "MIC Streptococcus pyogenes (GC 4563)", "setting": "Streptococcus sp.; [2]", "value": "<0.06", "unit": "µg/mL"},
      {"measurement": "MIC Streptococcus pneumoniae (ATCC 6301)", "setting": "Streptococcus sp.; strain ATCC 6301", "value": "<0.06", "unit": "µg/mL"},
      {"measurement": "MIC Streptococcus pneumoniae (GC 1894)", "setting": "Streptococcus sp.; strain GC 1894", "value": "<0.06", "unit": "µg/mL"},
      {"measurement": "MIC Streptococcus pyogenes (GC 4563)", "setting": "Streptococcus sp.; strain GC 4563", "value": "<0.06", "unit": "µg/mL"},
      {"measurement": "MIC Streptococcus agalactiae (GC 4564)", "setting": "Streptococcus sp.; strain GC 4564", "value": "<0.06", "unit": "µg/mL"},
      {"measurement": "MIC Streptococcus pneumoniae (GC 4565)", "setting": "Streptococcus sp.; strain GC 4565", "value": "<0.06", "unit": "µg/mL"}
    ]}
  ]
}
